Results: US20120276245A1, “METHOD FOR IMPROVED FERMENTATION” (STICHTING TOP INSTITUTE FOOD AND NUTRITION, priority 2009, published 2012)
Like-named read-outs stand apart in the source and are kept apart here.

Key:
L. bulgaricus = experiment: Intervention study: acidification of L. bulgaricus mono-culture in reconstituted skim milk; type: cell-based, Lactobacillus delbrueckii subsp. bulgaricus; settings: 37° C., 19 h
Description: (§1) Cultures of S. thermophilus, L. bulgaricus and a mixed culture were prepared in 0.8 volume reconstituted skim milk with 0.2 volume of a solution with compounds: Na-pyruvate (1.82 mM), Na-formate (1.47 mM), folic acid (1 mM), nucleobases (10 mg/L each) (all representing purine and pyrimidine metabolism), Tween-20 (105.9 μM) (as a supply of lauric acid), Tween-80 (110 mg/L) (as a supply of oleic acid). Here after these compounds are referred to as ‘interaction compounds’. The LCFAs oleic acid and lauric acid are poorly soluble and therefore we used Tween-20 and Tween-80. The effect of each of all interaction compounds on growth and acidification was tested in a single addition and a single omission strategy. Paired comparisons were made of a single compound versus nothing added (neg. control), and of all compounds minus one added versus all (pos. control). Acidification of quadruplicate cultures of 250 μL, was measured at 37° C. for 19 h in hydroplates (PreSens—Precision Sensing GmbH, Germany) where after CFU counts were determined using a rapid miniplating method (36). Significant differences in acidification were determined by comparing the maximal acidification rate using a two-tailed Students t-test (p=0.05). Similarly, significant differences were calculated between the final pH values and between the colony-forming units. A higher cell count, lower final pH, higher acidification rate and a shorter time to reach this rate are considered stimulatory effect of the intervention compared to the control.

S. thermophilus = experiment: Intervention study: acidification and growth of S. thermophilus mono-culture in reconstituted skim milk; type: cell-based, Streptococcus thermophilus; settings: for Acidification by S. thermophilus: mono-culture in reconstituted skim milk, 37° C., 19 h, compounds listed in decreasing order of stimulation: formic acid, pyruvic acid, folic acid, Tween-20; for Growth of S. thermophilus in monoculture: in the absence of Lactobacillus bulgaricus
Description: as §1

[1] = test system: genes involved in biosynthesis of purines and folic acid cycling; settings: formic acid supplied, both species
Description: (§2) Microarrays were spotted on the Agilent 8x 15K platform (Agilent Technologies, Santa Clara, Calif., USA) with a custom probe design (AMADID 015342) comprising the sequences of both S. thermophilus CNRZ1066 (released by NCBI, genbank accession no. NC 006449) and L. bulgaricus ATCC BAA-365 (released by JGI, genbank accession no. NC 008529). The probes were designed with the objective to minimize cross-hybridization: the probes were species-specific, i.e. all probes were designed as 60-mers with a target score of 100% to the target gene, allowing no binding of cDNA that is 1 base different (mismatch) if the correct hybridization temperature (65° C.) and washing temperature (37° C.) are used. In total there are 5438 probes representing 1899 genes of S. thermophilus and 4028 spots representing 1709 genes of L. bulgaricus. Most genes are represented by 3 probes or more. Only 55 genes in S. thermophilus and 77 in L. bulgaricus are represented by one probe and only 5 genes of S. thermophilus and 31 genes of L. bulgaricus are lacking. The selectivity of strain specific gene detection was tested by a series of transcriptome profiling experiments of samples from MRS-grown mono-cultures of both strains. […] They were excluded from further analysis.
(§3) The high protein content of milk and the polysaccharide production by the grown microorganisms make cell harvesting problematic. Furthermore, sampling and quenching need to be carried out rapidly in order to prevent the introduction of technical errors in a transcriptomics experiment. Several procedures have been developed to “clear” the milk to enable cell harvest by centrifugation without the contamination with milk solids. However, milk cleaning procedures are time consuming and require drastic changes in pH and the addition of large quantities of sodium citrate.

[2] = test system: pflA (pyruvate formate lyase gene); settings: mixed culture supplemented with formic acid
Description: as §2, §3

[3] = test system: pfl (pyruvate formate lyase gene); settings: mixed culture supplemented with formic acid
Description: as §2, §3

[4] = test system: mixed culture of S. thermophilus and L. bulgaricus; experiment: Intervention study: acidification of mixed culture in reconstituted skim milk; type: cell-based; settings: 37° C., 19 h, stimulatory effects less than with the mono-cultures
Description: as §1, with “A higher cell count, lower final pH, higher acidification rate and a shorter time to reach this rate are considered stimulatory effect of the intervention compared to the control.” left out

Compound	L. bulgaricus acidification (L. bulgaricus)	Acidification by S. thermophilus (S. thermophilus)	Growth of S. thermophilus in monoculture (S. thermophilus)	Expression of genes involved in biosynthesis of purines and folic acid cycling ([1]; early (second) exponential phase)	Expression of genes involved in biosynthesis of purines and folic acid cycling ([1]; mid exponential phase)	Expression of pflA down-regulated when formic acid was supplied [2]	Expression of pfl down-regulated when formic acid was supplied [3]	Acidification of the mixed cultures [4]
Nc1nc2ncc(CNc3ccc(C(=O)N[C@@H](CCC(=O)O)C(=O)O)cc3)nc2c(=O)[nH]1 [folic acid]	small stimulatory effect	stimulated	stimulate growth					
O=CO [formic acid]	stimulated the most	stimulated		lower	higher	5.7 fold	3.8 fold	still stimulated
CC(=O)C(=O)O [pyruvic acid]	small stimulatory effect	stimulated	stimulate growth					still stimulated
Tween-20	small stimulatory effect	stimulated	stimulate growth					
Tween-80	small stimulatory effect							
